Series [1] relates to Photinus pyralis (firefly) luciferase mRNA expression in liver. Kind of series: Luciferase mRNA in vivo evaluation using LNP compositions, liver. The following applies: LNP 47.5:10:40.7:1.8, 1 mg/kg, mice. How it is done:
(§1) Luciferase mRNA in vivo evaluation studies were performed in 6-8 week old female C57BL/6 mice (Charles River) 8-10 week old CD-1 (Harlan) mice (Charles River) according to guidelines established by an institutional animal care committee (ACC) and the Canadian Council on Animal Care (CCAC). Varying doses of mRNA-lipid nanoparticle were systemically administered by tail vein injection and animals euthanized at a specific time point (e.g., 4 hours) post-administration. Liver and spleen were collected in pre-weighed tubes, weights determined, immediately snap frozen in liquid nitrogen and stored at −80° C. until processing for analysis.
For liver, approximately 50 mg was dissected for analyses in a 2 mL FastPrep tubes (MP Biomedicals, Solon Ohio). ¼″ ceramic sphere (MP Biomedicals) was added to each tube and 500 μL of Glo Lysis Buffer—GLB (Promega, Madison Wis.) equilibrated to room temperature was added to liver tissue. Liver tissues were homogenized with the FastPrep24 instrument (MP Biomedicals) at 2×6.0 m/s for 15 seconds. Homogenate was incubated at room temperature for 5 minutes prior to a 1:4 dilution in GLB and assessed using SteadyGlo Luciferase assay system (Promega). Specifically, 50 μL of diluted tissue homogenate was reacted with 50 μL of SteadyGlo substrate, shaken for 10 seconds followed by 5 minute incubation and then quantitated using a CentroXS^3 LB 960 luminometer (Berthold Technologies, Germany). The amount of protein assayed was determined by using the BCA protein assay kit (Pierce, Rockford Ill.). Relative luminescence units (RLU) were then normalized to total μg protein assayed. To convert RLU to ng luciferase a standard curve was generated with QuantiLum Recombinant Luciferase (Promega). For a representative formulation having a combination of two cationic lipids, a four-hour time point was chosen for an efficacy evaluation of the lipid formulation.
(§2) The FLuc mRNA (L-6107) from Trilink Biotechnologies will express a luciferase protein, originally isolated from the firefly, Photinus pyralis. FLuc is commonly used in mammalian cell culture to measure both gene expression and cell viability. It emits bioluminescence in the presence of the substrate, luciferin. This capped and polyadenylated mRNA is fully substituted with 5-methylcytidine and pseudouridine.
LNP's were formulated by an in-line mixing process as described in Example 1. […] The size and polydispersity index data were generated using Malvern Nanosizer ZS. The diameters given are intensity weighted means. Encapsulation was determined using a fluorescent intercalating dye based assay (Ribogreen).

A short description of series [2]: Encapsulation by fluorescent intercalating dye based assay (Ribogreen). The series is classed as physicochemical. On the procedure:
(§3) LNP's were formulated by an in-line mixing process as described in Example 1. These formulations were prepared such that the mRNA to cationic lipid ratio was held constant (N/P=6.3). The size and polydispersity index data were generated using Malvern Nanosizer ZS. The diameters given are intensity weighted means. Encapsulation was determined using a fluorescent intercalating dye based assay (Ribogreen). […]
(§4) The effect of the proportion of mRNA to total lipid was investigated for a particular standard set of lipid proportions across three representative cationic lipids. LNP's were formulated by an in-line mixing process as described in Example 1. The lipid proportions were held constant at 47.5:10:40.7:1.8 for the cationic lipid, DSPC, Cholesterol and PEG-lipid respectively. The mRNA to lipid ratios are described in terms of the N/P ratio where N represents the moles of cationic lipid and P represents the moles of phosphate present as part of the nucleic acid backbone. Ratios described in this way are independent of the size of the nucleic acid. The size and polydispersity index data were generated using Malvern Nanosizer ZS. The diameters given are intensity weighted means. Encapsulation was determined using a fluorescent intercalating dye based assay (Ribogreen).

A short description of series [3]: Particle size and polydispersity index by light scattering (Malvern Zetasizer/Nanosizer ZS). The series is classed as physicochemical. Particulars: LNP 47.5:10:40.7:1.8. On the procedure: Cationic lipid(s), DSPC, cholesterol and PEG-lipid were solubilized in ethanol at a desired molar ratio (e.g., 50:0 to 10:28.5 to 38.5:1.5 to 1.7 or 47.5:10:40.8:1.7). Lipid nanoparticles (LNP) were prepared at a total lipid to mRNA weight ratio of approximately 10:1 to 30:1. The mRNA was diluted to 0.2 mg/mL in 10 to 50 mM citrate buffer, pH 4. Syringe pumps were used to mix the lipid solution (i.e., LNP components solubilized in ethanol) with the mRNA aqueous solution at a ratio of about 1:5 to 1:3 (vol/vol) with total flow rates above 15 mL/min. The ethanol was then removed and the external buffer replaced with PBS by dialysis. Finally, the lipid nanoparticles were filtered through a 0.2 μm pore sterile filter. Lipid nanoparticle particle size was 55-95 nm diameter, and in some instances approximately 70-90 nm as determined by quasi-elastic light scattering using a Malvern Zetasizer Nano ZS (Malvern, UK).
as §3, §4

Series [4] has as its system Photinus pyralis (firefly) luciferase mRNA expression in spleen. Nature of the series: Luciferase mRNA in vivo evaluation using LNP compositions, spleen. Particulars: LNP 47.5:10:40.7:1.8, 1 mg/kg, mice. On the procedure:
as §1, §2, §4

Series [5] is described as follows: Determination of pKa of formulated lipids (TNS fluorescence assay). Format: physicochemical. The following applies: lipids of Formula I, formulated in LNP cationic lipid/DSPC/cholesterol/PEG-lipid 50/10/38.5/1.5 mol % or cationic lipid alone. On the procedure:
As described elsewhere, the pKa of formulated cationic lipids is correlated with the effectiveness of LNPs for delivery of nucleic acids (see Jayaraman et al, Angewandte Chemie, International Edition (2012), 51(34), 8529-8533; Semple et al, Nature Biotechnology 28, 172-176 (2010)). A representative preferred range of pKa is ˜5 to ˜7. […] Lipid nanoparticles comprising of cationic lipid/DSPC/cholesterol/PEG-lipid (50/10/38.5/1.5 mol %) or a cationic lipid alone in PBS at a concentration of 0.4 mM total lipid are prepared using the in-line process as described in Example 1. TNS was prepared as a 100 μM stock solution in distilled water. Vesicles were diluted to 24 μM lipid in 2 mL of buffered solutions containing 10 mM HEPES, 10 mM MES, 10 mM ammonium acetate, 130 mM NaCl, where the pH ranged from 2.5 to 11. An aliquot of the TNS solution was added to give a final concentration of 1 μM and following vortex mixing fluorescence intensity was measured at room temperature in a SLM Aminco Series 2 Luminescence Spectrophotometer using excitation and emission wavelengths of 321 nm and 445 nm. A sigmoidal best fit analysis was applied to the fluorescence data and the pKa was measured as the pH giving rise to half-maximal fluorescence intensity.

[6] abbreviates: N/P 3:1, LNP cationic lipid/DSPC/Cholesterol/PEG-lipid 47.5:10:40.7:1.8.

Broadly, the pKa is the negative logarithm of the acid dissociation constant.

Take `CCCCCCC(CCCC)C(=O)OCCCCCCCCCN(CCCO)CCCCCCCCCOC(=O)C(CCCC)CCCCCC` (stereo not shown) [III-45]: the “Liver Luc Activity” value is 13308 ng/g in series [1] (N/P 3:1), 15395 ng/g in series [1] (N/P 6:1), 16596 ng/g in series [1] (N/P 12:1) and 16005 ng/g in series [1] (N/P 22:1). In addition, the Encapsulation in series [2] (setting [6]) is given as 75%; in series [2] (N/P 6:1, LNP 47.5:10:40.7:1.8), 86%; in series [2] (N/P 12:1, LNP 47.5:10:40.7:1.8) it was 91%; in series [2] (N/P 22:1, LNP 47.5:10:40.7:1.8), 94%. Also, the PDI was found to be 0.089 in series [3] (N/P 3:1), 0.068 in series [3] (N/P 6:1), 0.074 in series [3] (N/P 12:1) and 0.083 in series [3] (N/P 22:1). In addition, the Size in series [3] (N/P 3:1) is given as 87 nm; in series [3] (N/P 6:1), 74 nm; in series [3] (N/P 12:1), 65 nm; in series [3] (N/P 22:1), 57 nm. The “Spleen Luc Activity” value in series [4] (N/P 3:1) stood at 410 ng/g; in series [4] (N/P 6:1), 356 ng/g; in series [4] (N/P 12:1), 243 ng/g; in series [4] (N/P 22:1), 353 ng/g.

As to `CCCCCCCCC(=O)N(CCCN(C)C)C(CCCCCCCCC(=O)OCC(CCCC)CCCCCC)CCCCCCCCC(=O)OCC(CCCC)CCCCCC` (stereo not shown) [II-9], the “Liver Luc Activity” value in series [1] (N/P 3:1) worked out at 6727 ng/g; in series [1] (N/P 6:1) it was 12209 ng/g; in series [1] (N/P 12:1), 18330 ng/g; in series [1] (N/P 22:1), 12634 ng/g. The Encapsulation in series [2] (setting [6]) is given as 92%; in series [2] (N/P 6:1, LNP 47.5:10:40.7:1.8) it was 95%; in series [2] (N/P 12:1, LNP 47.5:10:40.7:1.8), 98%; in series [2] (N/P 22:1, LNP 47.5:10:40.7:1.8), 98%. The PDI in series [3] (N/P 3:1) was 0.054; in series [3] (N/P 6:1), 0.033; in series [3] (N/P 12:1), 0.014; in series [3] (N/P 22:1), 0.017. Besides, the Size in series [3] (N/P 3:1) stood at 94 nm; in series [3] (N/P 6:1), 88 nm; in series [3] (N/P 12:1) it was 84 nm; in series [3] (N/P 22:1) it was 84 nm. Further, the “Spleen Luc Activity” value in series [4] (N/P 3:1) was 831 ng/g; in series [4] (N/P 6:1) it was 642 ng/g; in series [4] (N/P 12:1), 514 ng/g; in series [4] (N/P 22:1), 439 ng/g.

Regarding `CCCCCCCCCCCCC(CCCCCCCCCC)C(=O)OCCCCCCN(CCCCCCOC(=O)C(CCCCCCCCCC)CCCCCCCCCC)CCN(C)C` (stereo not shown) [Compound I-39], the pKa in series [5] amounted to 5.82.

With `CCCCCCCCC(CCCCCC)C(=O)OCCCCCCN(CCCCCCOC(=O)C(CCCCCC)CCCCCCCC)CCN(C)C` (stereo not shown) [Compound I-5], the “Liver Luc Activity” value was determined as 7689 ng/g in series [1] (N/P 3:1), 9509 ng/g in series [1] (N/P 6:1), 12826 ng/g in series [1] (N/P 12:1) and 14538 ng/g in series [1] (N/P 22:1). Besides, the Encapsulation was 94% in series [2] (setting [6]); 96% in series [2] (N/P 6:1, LNP 47.5:10:40.7:1.8); 98% in series [2] (N/P 12:1, LNP 47.5:10:40.7:1.8); 99% in series [2] (N/P 22:1, LNP 47.5:10:40.7:1.8). Besides, the PDI in series [3] (N/P 3:1) stood at 0.072; in series [3] (N/P 6:1), 0.028; in series [3] (N/P 12:1), 0.026; in series [3] (N/P 22:1), 0.039. In addition, the Size in series [3] (N/P 3:1) was found to be 86 nm; in series [3] (N/P 6:1), 81 nm; in series [3] (N/P 12:1), 75 nm; in series [3] (N/P 22:1) it was 81 nm. Moreover, the “Spleen Luc Activity” value in series [4] (N/P 3:1) came to 188 ng/g; in series [4] (N/P 6:1), 236 ng/g; in series [4] (N/P 12:1), 184 ng/g; in series [4] (N/P 22:1), 247 ng/g.

(Values after patent US11712481B2, “Lipid nanoparticle formulations” (Acuitas Therapeutics, Inc., priority 2016, dated 2023).)
